{
  "source": "patent US11542240B2",
  "about": "“STK19 inhibitors for treatment of cancer” (TRUSTEES OF BOSTON UNIVERSITY, priority 2018, dated 2023)",
  "assay_in_all_cases": "biochemical",
  "assay_type_in_all_cases": "binding",
  "key": {"[1]": {"target": "panel of 468 diverse kinases (Homo sapiens, UniProt P04629)", "sequence (P04629 33-796 limits assumed)": "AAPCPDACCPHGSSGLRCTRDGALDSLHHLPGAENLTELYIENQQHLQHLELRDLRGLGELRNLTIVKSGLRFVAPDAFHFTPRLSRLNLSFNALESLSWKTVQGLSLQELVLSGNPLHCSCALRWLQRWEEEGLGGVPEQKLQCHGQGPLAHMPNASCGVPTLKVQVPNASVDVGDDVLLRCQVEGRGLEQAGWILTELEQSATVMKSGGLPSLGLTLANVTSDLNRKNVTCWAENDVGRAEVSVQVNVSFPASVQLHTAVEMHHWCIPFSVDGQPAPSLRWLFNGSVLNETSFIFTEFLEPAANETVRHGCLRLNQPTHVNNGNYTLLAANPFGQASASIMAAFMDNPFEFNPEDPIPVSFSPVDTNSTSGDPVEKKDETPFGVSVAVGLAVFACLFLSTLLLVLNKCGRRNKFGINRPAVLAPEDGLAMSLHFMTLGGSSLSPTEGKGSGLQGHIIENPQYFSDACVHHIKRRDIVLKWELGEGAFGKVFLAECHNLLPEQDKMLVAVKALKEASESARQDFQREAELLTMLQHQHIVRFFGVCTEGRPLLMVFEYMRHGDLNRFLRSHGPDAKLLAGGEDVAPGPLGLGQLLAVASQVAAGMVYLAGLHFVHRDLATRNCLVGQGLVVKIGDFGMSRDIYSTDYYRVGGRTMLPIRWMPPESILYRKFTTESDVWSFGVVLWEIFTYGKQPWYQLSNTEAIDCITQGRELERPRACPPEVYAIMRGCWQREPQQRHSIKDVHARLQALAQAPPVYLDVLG", "settings": "TRKA; 1000 nM; read-out: Percent Control"}, "[2]": {"target": "panel of 468 diverse kinases (Homo sapiens, UniProt P00533, L858R)", "settings": "EGFR(L858R); 1000 nM; read-out: Percent Control"}, "[3]": {"target": "panel of 468 diverse kinases (Homo sapiens, UniProt P15056, V600E)", "settings": "BRAF(V600E); 1000 nM; read-out: Percent Control"}, "[4]": {"target": "panel of 468 diverse kinases (Homo sapiens, UniProt Q16539)", "sequence (Q16539 2-360 limits assumed)": "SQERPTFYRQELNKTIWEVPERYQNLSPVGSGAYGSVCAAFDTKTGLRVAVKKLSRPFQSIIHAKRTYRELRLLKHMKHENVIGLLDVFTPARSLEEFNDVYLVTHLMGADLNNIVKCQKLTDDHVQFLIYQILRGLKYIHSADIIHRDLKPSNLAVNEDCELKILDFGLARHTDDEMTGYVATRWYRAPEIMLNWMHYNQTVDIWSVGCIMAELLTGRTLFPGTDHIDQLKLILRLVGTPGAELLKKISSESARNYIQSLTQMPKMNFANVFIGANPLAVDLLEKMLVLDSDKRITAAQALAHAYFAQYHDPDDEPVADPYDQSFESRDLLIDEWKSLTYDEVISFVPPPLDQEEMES", "settings": "p38-alpha; 1000 nM; read-out: Percent Control"}, "[5]": {"target": "panel of 468 diverse kinases (Homo sapiens, UniProt Q9UM73, L1196M)", "settings": "ALK(L1196M); 1000 nM; read-out: Percent Control"}, "[6]": {"target": "panel of 468 diverse kinases (Homo sapiens, UniProt P07949, M918T)", "settings": "RET(M918T); 1000 nM; read-out: Percent Control"}, "[7]": {"target": "panel of 468 diverse kinases (Homo sapiens, UniProt Q8IVH8)", "settings": "MAP4K3; 1000 nM; read-out: Percent Control"}, "[8]": {"target": "panel of 468 diverse kinases (Homo sapiens, UniProt Q9BWU1)", "settings": "CDK11; 1000 nM; read-out: Percent Control"}, "[9]": {"target": "panel of 468 diverse kinases (Homo sapiens, UniProt P54756)", "settings": "EPHA5; 1000 nM; read-out: Percent Control"}, "[10]": {"target": "panel of 468 diverse kinases (Homo sapiens, UniProt P57058)", "settings": "HUNK; 1000 nM; read-out: Percent Control"}, "[11]": {"target": "panel of 468 diverse kinases (Homo sapiens, UniProt Q00532)", "settings": "CDKL1; 1000 nM; read-out: Percent Control"}, "[12]": {"target": "panel of 468 diverse kinases (Homo sapiens, UniProt Q9C098)", "settings": "DCAMKL3; 1000 nM; read-out: Percent Control"}, "[13]": {"target": "panel of 468 diverse kinases (Homo sapiens, UniProt P42336, C420R)", "settings": "PIK3CA(C420R); 1000 nM; read-out: Percent Control"}, "[14]": {"target": "panel of 468 diverse kinases (Homo sapiens, UniProt Q07912)", "settings": "TNK2; 1000 nM; read-out: Percent Control"}, "[15]": {"target": "panel of 468 diverse kinases (Homo sapiens, UniProt Q13627)", "settings": "DYRKIV; 1000 nM; read-out: Percent Control"}, "[16]": {"target": "panel of 468 diverse kinases (Homo sapiens, UniProt Q16584)", "settings": "MLK3; 1000 nM; read-out: Percent Control"}, "[17]": {"target": "panel of 468 diverse kinases (Homo sapiens, UniProt P08581)", "sequence (P08581 25-1390 limits assumed)": "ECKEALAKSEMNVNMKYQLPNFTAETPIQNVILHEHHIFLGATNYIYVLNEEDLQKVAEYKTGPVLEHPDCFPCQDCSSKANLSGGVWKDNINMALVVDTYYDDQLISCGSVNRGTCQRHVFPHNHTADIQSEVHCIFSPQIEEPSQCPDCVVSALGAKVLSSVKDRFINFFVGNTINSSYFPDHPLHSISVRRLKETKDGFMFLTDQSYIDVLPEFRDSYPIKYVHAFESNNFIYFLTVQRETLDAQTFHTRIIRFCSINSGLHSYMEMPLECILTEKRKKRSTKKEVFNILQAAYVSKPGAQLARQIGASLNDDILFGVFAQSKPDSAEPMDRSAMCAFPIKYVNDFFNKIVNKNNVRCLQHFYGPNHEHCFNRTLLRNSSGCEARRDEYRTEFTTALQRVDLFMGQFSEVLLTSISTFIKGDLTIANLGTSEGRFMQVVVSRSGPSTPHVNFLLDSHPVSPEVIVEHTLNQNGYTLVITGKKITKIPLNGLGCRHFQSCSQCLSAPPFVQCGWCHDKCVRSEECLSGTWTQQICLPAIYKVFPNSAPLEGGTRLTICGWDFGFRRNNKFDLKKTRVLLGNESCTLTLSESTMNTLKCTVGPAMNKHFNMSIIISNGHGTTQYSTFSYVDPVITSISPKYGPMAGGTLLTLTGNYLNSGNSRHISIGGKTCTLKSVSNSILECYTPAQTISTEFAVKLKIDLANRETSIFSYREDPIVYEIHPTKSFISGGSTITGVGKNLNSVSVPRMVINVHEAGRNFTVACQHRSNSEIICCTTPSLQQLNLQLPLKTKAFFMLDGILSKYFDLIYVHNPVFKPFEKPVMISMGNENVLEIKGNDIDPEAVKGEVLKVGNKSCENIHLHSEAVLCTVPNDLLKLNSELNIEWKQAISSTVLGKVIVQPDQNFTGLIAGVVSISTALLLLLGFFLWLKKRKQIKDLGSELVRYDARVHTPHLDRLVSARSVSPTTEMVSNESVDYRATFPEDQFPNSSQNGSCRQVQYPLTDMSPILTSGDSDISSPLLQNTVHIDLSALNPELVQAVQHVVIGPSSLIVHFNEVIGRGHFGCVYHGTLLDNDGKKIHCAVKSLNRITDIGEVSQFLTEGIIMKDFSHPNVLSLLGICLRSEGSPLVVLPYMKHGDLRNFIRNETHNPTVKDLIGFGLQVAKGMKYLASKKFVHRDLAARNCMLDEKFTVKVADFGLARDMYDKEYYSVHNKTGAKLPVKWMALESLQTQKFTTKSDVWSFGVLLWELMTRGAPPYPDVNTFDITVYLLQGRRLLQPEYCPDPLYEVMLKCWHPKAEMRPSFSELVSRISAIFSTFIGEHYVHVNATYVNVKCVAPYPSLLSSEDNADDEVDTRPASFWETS", "settings": "MET; 1000 nM; read-out: Percent Control"}, "[18]": {"target": "panel of 468 diverse kinases (Homo sapiens, UniProt Q9NWZ3)", "settings": "IRAK4; 1000 nM; read-out: Percent Control"}, "[19]": {"target": "panel of 468 diverse kinases (Homo sapiens, UniProt Q8IW41)", "settings": "MAPKAPK5; 1000 nM; read-out: Percent Control"}, "[20]": {"target": "panel of 468 diverse kinases (Homo sapiens, UniProt P42684)", "sequence (P42684 2-1182 limits assumed)": "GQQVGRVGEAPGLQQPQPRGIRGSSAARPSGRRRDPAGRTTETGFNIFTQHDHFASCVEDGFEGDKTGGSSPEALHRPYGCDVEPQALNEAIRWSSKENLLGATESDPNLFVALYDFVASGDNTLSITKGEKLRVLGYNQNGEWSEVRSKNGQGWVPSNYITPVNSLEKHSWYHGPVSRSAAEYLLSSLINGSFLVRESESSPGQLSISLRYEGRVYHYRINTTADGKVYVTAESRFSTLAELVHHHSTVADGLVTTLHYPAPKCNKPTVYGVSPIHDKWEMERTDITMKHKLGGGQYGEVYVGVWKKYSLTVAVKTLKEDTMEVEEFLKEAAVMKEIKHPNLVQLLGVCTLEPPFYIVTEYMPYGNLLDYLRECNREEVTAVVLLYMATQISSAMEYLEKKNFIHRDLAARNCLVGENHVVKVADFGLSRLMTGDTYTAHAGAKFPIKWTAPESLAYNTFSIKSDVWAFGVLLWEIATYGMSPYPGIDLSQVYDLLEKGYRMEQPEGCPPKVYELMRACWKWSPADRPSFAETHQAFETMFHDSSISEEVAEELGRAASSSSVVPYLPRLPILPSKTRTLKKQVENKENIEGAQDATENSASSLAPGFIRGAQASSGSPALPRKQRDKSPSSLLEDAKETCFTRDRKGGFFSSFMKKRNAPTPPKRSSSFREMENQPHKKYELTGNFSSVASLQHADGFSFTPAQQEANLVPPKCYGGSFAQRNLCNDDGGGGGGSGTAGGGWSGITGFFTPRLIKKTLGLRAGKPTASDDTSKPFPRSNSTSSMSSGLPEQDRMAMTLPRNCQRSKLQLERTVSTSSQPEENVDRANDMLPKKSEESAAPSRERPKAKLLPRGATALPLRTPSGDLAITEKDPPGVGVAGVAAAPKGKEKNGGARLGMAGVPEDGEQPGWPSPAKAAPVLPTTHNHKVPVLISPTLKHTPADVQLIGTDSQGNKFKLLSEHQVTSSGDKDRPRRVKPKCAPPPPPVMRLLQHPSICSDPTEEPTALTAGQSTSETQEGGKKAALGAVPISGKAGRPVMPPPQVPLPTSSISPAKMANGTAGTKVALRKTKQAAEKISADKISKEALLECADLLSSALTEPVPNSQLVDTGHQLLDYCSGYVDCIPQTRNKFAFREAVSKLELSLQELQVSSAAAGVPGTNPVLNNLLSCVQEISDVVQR", "settings": "ABL2; 1000 nM; read-out: Percent Control"}, "[21]": {"target": "panel of 468 diverse kinases (Homo sapiens, UniProt Q15375)", "sequence (Q15375 28-998 limits assumed)": "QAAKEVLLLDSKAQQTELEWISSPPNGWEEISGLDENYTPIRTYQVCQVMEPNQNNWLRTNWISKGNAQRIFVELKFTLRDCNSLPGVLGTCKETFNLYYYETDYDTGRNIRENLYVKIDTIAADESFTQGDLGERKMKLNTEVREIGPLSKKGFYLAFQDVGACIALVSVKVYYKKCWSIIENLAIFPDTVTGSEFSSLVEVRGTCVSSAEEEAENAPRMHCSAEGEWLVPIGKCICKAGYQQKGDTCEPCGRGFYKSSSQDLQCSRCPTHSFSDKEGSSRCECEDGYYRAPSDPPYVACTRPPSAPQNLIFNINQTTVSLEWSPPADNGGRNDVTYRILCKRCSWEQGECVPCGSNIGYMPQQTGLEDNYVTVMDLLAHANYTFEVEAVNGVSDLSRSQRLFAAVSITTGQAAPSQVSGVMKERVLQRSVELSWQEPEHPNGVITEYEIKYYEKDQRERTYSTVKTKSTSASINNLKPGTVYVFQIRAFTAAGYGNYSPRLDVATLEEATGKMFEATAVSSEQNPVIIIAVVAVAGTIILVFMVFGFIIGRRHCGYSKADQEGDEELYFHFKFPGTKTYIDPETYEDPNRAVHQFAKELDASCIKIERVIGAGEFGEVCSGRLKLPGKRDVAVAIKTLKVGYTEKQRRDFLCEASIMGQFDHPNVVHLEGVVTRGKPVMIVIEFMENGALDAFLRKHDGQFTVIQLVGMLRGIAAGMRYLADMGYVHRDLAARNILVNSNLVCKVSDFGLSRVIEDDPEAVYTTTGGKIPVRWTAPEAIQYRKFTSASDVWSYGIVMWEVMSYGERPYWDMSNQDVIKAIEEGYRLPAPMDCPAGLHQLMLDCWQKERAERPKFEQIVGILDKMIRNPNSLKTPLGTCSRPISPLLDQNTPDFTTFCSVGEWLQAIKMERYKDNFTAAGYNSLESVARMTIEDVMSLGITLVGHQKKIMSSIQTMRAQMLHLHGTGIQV", "settings": "EPHA7; 1000 nM; read-out: Percent Control"}, "[22]": {"target": "panel of 468 diverse kinases (Homo sapiens, UniProt Q96D53)", "settings": "ADCK4; 1000 nM; read-out: Percent Control"}, "[23]": {"target": "panel of 468 diverse kinases (Homo sapiens, UniProt O96013)", "settings": "PAK4; 1000 nM; read-out: Percent Control"}, "[24]": {"target": "panel of 468 diverse kinases (Homo sapiens, UniProt Q9H4B4)", "settings": "PLK3; 1000 nM; read-out: Percent Control"}, "[25]": {"target": "panel of 468 diverse kinases (Homo sapiens, UniProt O94921)", "settings": "PFTK1; 1000 nM; read-out: Percent Control"}, "[26]": {"target": "panel of 468 diverse kinases (Homo sapiens, UniProt Q02779)", "settings": "MLK2; 1000 nM; read-out: Percent Control"}, "[27]": {"target": "panel of 468 diverse kinases (Homo sapiens, UniProt P37173)", "settings": "TGFBR2; 1000 nM; read-out: Percent Control"}, "[28]": {"target": "panel of 468 diverse kinases (Homo sapiens, UniProt Q15208)", "sequence (Q15208 2-465 limits assumed)": "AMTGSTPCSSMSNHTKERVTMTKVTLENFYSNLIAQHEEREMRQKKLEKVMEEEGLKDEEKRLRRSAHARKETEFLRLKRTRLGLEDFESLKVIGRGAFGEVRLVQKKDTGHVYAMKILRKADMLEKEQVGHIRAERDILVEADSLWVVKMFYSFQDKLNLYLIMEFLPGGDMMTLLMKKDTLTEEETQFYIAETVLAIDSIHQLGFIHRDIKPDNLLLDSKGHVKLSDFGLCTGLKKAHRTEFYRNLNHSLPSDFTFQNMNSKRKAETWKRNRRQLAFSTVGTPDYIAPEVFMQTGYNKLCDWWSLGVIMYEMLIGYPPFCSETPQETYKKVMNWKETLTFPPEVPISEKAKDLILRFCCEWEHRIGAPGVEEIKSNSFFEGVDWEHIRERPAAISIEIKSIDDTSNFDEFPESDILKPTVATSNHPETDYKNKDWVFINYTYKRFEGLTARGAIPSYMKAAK", "settings": "NDR1; 1000 nM; read-out: Percent Control"}, "[29]": {"target": "panel of 468 diverse kinases (Homo sapiens, UniProt O95747)", "settings": "OSR1; 1000 nM; read-out: Percent Control"}, "[30]": {"target": "panel of 468 diverse kinases (Homo sapiens, UniProt Q8N568)", "settings": "DCAMKL2; 1000 nM; read-out: Percent Control"}, "[31]": {"target": "panel of 468 diverse kinases (Homo sapiens, UniProt Q15569)", "settings": "TESK1; 1000 nM; read-out: Percent Control"}},
  "data": [
    {"smiles": "COc1cc2nc(NC3CC3)nc(NC3CCN(C(C)C)CC3)c2cc1OC", "note": "[Formula IV]", "values": [
      {"measurement": "remaining activity at 1 µM", "setting": "[1]", "result": 67, "unit": "%"},
      {"measurement": "remaining activity at 1 µM", "setting": "[2]", "result": 99, "unit": "%"},
      {"measurement": "remaining activity at 1 µM", "setting": "[3]", "result": 89, "unit": "%"},
      {"measurement": "remaining activity at 1 µM", "setting": "[4]", "result": 100, "unit": "%"},
      {"measurement": "remaining activity at 1 µM", "setting": "[5]", "result": 78, "unit": "%"},
      {"measurement": "remaining activity at 1 µM", "setting": "[6]", "result": 85, "unit": "%"},
      {"measurement": "remaining activity at 1 µM", "setting": "[7]", "result": 91, "unit": "%"},
      {"measurement": "remaining activity at 1 µM", "setting": "[8]", "result": 82, "unit": "%"},
      {"measurement": "remaining activity at 1 µM", "setting": "[9]", "result": 86, "unit": "%"},
      {"measurement": "remaining activity at 1 µM", "setting": "[10]", "result": 74, "unit": "%"},
      {"measurement": "remaining activity at 1 µM", "setting": "[11]", "result": 53, "unit": "%"},
      {"measurement": "remaining activity at 1 µM", "setting": "[12]", "result": 92, "unit": "%"},
      {"measurement": "remaining activity at 1 µM", "setting": "[13]", "result": 91, "unit": "%"},
      {"measurement": "remaining activity at 1 µM", "setting": "[14]", "result": 100, "unit": "%"},
      {"measurement": "remaining activity at 1 µM", "setting": "[15]", "result": 60, "unit": "%"},
      {"measurement": "remaining activity at 1 µM", "setting": "[16]", "result": 93, "unit": "%"},
      {"measurement": "remaining activity at 1 µM", "setting": "[17]", "result": 96, "unit": "%"},
      {"measurement": "remaining activity at 1 µM", "setting": "[18]", "result": 78, "unit": "%"},
      {"measurement": "remaining activity at 1 µM", "setting": "[19]", "result": 63, "unit": "%"},
      {"measurement": "remaining activity at 1 µM", "setting": "[20]", "result": 98, "unit": "%"},
      {"measurement": "remaining activity at 1 µM", "setting": "[21]", "result": 93, "unit": "%"},
      {"measurement": "remaining activity at 1 µM", "setting": "[22]", "result": 100, "unit": "%"},
      {"measurement": "remaining activity at 1 µM", "setting": "[23]", "result": 96, "unit": "%"},
      {"measurement": "remaining activity at 1 µM", "setting": "[24]", "result": 68, "unit": "%"},
      {"measurement": "remaining activity at 1 µM", "setting": "[25]", "result": 98, "unit": "%"},
      {"measurement": "remaining activity at 1 µM", "setting": "[26]", "result": 95, "unit": "%"},
      {"measurement": "remaining activity at 1 µM", "setting": "[27]", "result": 94, "unit": "%"},
      {"measurement": "remaining activity at 1 µM", "setting": "[28]", "result": 81, "unit": "%"},
      {"measurement": "remaining activity at 1 µM", "setting": "[29]", "result": 73, "unit": "%"},
      {"measurement": "remaining activity at 1 µM", "setting": "[30]", "result": 90, "unit": "%"},
      {"measurement": "remaining activity at 1 µM", "setting": "[31]", "result": 100, "unit": "%"}
    ]}
  ]
}
